Where a name gives a salt, the structure may show the parent alone.
Assays:
[1] = tested on: α-synuclein PFF mouse model of sporadic PD; assay: α-synuclein PFF mouse model: behavioral tests (pole, grip strength, amphetamine rotation); format: in vivo, C57BL/6 mice
Method: (§1) For stereotaxic injection of α-synuclein PFF, 2 months old mice were anesthetized with the mixture of xylazene and ketamine. An injection cannula (26.5 gauge) was applied stereotaxically into the striatum (anteroposterior, […]; dorsoventral, 2.6 mm) unilaterally into the right hemisphere. The infusion of 2 μl α-synuclein PFF (2.5 μg/μl in PBS) or PBS was performed at a rate of 0.4 μl per min. The head skin was closed by suturing and wound healing and recovery were monitored following surgery. For stereological analysis, animals were perfused and fixed intracardially with ice-cold PBS followed by 4% paraformaldehyde at 6 months after striatal α-synuclein PFF injections. The brain was removed and processed for immunohistochemistry or immunofluorescence. Behavioral test was performed at 6 months after the unilateral striatal α-synuclein PFF injections. Treatment of Radotinib HCl was accomplished after 1 month of striatal α-synuclein PFF injections, once a day.
Before the actual test, mice were trained for three consecutive days and each training session consists of three test trials. Briefly, the mice were placed on the top of the pole (3 in. from the top of the pole) and then total time to reach the bottom of the pole was recorded. For the test, mice went through three sessions and the total time was recorded. Results were recorded by turn down, climb down, and total time (in seconds).
Neuromuscular strength was measured by maximum holding force generated by the mice. Mice were allowed to grasp a metal grid with their forelimbs. The tail was gently pulled and the maximum holding force recorded by the force transducer (Biosed, USA) when the mice released their grasp on the grid.
The amphetamine treatment (5 mg/kg, Sigma-Aldrich) was intraperitoneally administered after 6 months of α-synuclein PFF injections with or without Radotinib HCl treatment. Mice were placed in individual white bowls with a diameter of 20 cm and allowed to habituate to their environment for 10 min before turns contralateral and ipsilateral to the lesion were recorded over 20 min. Full-body ipsilateral rotations (clockwise) per 1 min session were recorded for each mouse from the video recordings.

[2] = tested on: α-synuclein PFF mouse model of sporadic PD; assay: α-synuclein PFF mouse model: dopaminergic neurodegeneration and striatal TH fiber density; format: in vivo, C57BL/6 mice; settings: for SNpc TH- and Nissl-positive dopaminergic neurons (stereologic counting): 180 days after PFF
Method: as §1
The perfusion was performed with ice-cold PBS and fixed by 4% paraformaldehyde after deep anesthesia. Whole brains were collected, and fixed in the 4% paraformaldehyde, and incubated in cryoprotection solution (30% sucrose/PBS, pH 7.4). Brains were frozen in an optimal cutting temperature (OCT) solution and serial coronal sections (30 µm sections) were cut with a microtome. […] TH-positive and Nissl-positive dopaminergic neurons from the SNpc region were counted through optical fractionators, the unbiased method for cell counting. […] The total number of TH-stained neurons and Nissl counts was analyzed as previously described ([27],[43]). Fiber density in the striatum was analyzed by optical density (OD) measurement. […] The number of pS129-α-synuclein positive and Nissl positive in the SNpc region were measured with ImageJ software and field counting. […] The number and immunoreactivities of microglia and astrocyte in the SNpc region were measured with ImageJ software.

BCR-Abl = settings: cited from earlier work
[3] = tested on: α-synuclein PFF mouse model of sporadic PD; assay: α-synuclein PFF mouse model: LB/LN-like pathology in vivo; set-up: species or system C57BL/6 mice; settings: for Accumulation of pS129-α-synuclein in SNpc TH-positive neurons: oral once a day for 5 months, 180 days after PFF
Method: For Triton X-100 (TX, Sigma-Aldrich) soluble and insoluble fraction, cells were prepared with sequential lysis buffer. Samples were homogenized in the followed TX-soluble buffer (50 mM Tris (pH 8.0), 150 mM NaCl, 1% TX with phosphatase inhibitor cocktail and protease inhibitor cocktail) and then were centrifuged and collected the soluble supernatant. The insoluble pellet was resuspended in TX-insoluble buffer (50 mM Tris (pH 8.0), 150 mM NaCl, 1% TX, 2% SDS with phosphatase inhibitor cocktail and protease inhibitor cocktail) and then was sonicated and centrifuged at 22 000 × g for 30 min.
Protein concentrations were determined using the BCA assay (Pierce, Rockford, IL, USA). 2X Laemmli buffer (Bio-Rad) was utilized to dilute the lysates. […] Membrane was blocked with TTBS (150 mM NaCl, 10 mM Tris–HCl (pH 7.4), 0.05% Tween 20) containing 5% skim milk for 30–60 min and incubated at 4°C overnight with primary antibodies; mouse anti-α-synuclein (610787; BD Transduction Laboratories), rabbit anti-pY245 c-Abl (2861; Cell Signaling Technology), mouse anti-c-Abl (554148; BD Transduction Laboratories), rabbit monoclonal anti-pS129 α-synuclein (ab168381; Abcam), rabbit polyclonal anti-phospho-p38 MAPK (Thr180/Tyr182) (9211; Cell Signaling Technology), rabbit polyclonal anti-p38 MAPK (A11340; Abclonal Technology) followed by HRP-conjugated rabbit or mouse secondary antibodies (1: 5000, GE Healthcare) for 1 h at room temperature. Rabbit polyclonal anti-pY39-α-synuclein antibody was generated as described previously ([13]). Protein bands were detected using chemiluminescence detection system onto X-ray film. The membranes were reprobed with HRP-conjugated β-actin antibody (1: 20 000, Sigma-Aldrich).
(§2) Primary mouse cortical neurons were plated onto poly-D-lysine coated coverslips. 4% paraformaldehyde was used to fix the neurons, followed by blocking in a solution with 5% normal donkey serum (Jackson ImmunoResearch), 2% BSA (Sigma-Aldrich) and 0.1% TX (Sigma-Aldrich) for 30–60 min at room temperature. Floating brain tissue sections were blocked with 10% donkey serum (Jackson Immunoreserach) in PBS plus 0.2% TX for 30 min at room temperature.
Primary antibodies, anti-pS129-α-synuclein (ab168381; Abcam), anti-TH antibody (Novus Biologicals) and anti-MAP2 (MAB3418; Millipore) were incubated at 4°C overnight. The samples were washed with PBS three times, followed by 1 h of incubation with a mixture of FITC-conjugated (Jackson ImmunoReserach) and Cy3-conjugated (Jackson ImmunoReserach) secondary antibodies at room temperature. […]
(§3) For stereotaxic injection of α-synuclein PFF, 2 months old mice were anesthetized with the mixture of xylazene and ketamine. […] The head skin was closed by suturing and wound healing and recovery were monitored following surgery. […]

[4] = tested on: α-synuclein PFF mouse model of sporadic PD; assay: α-synuclein PFF mouse model: neuroinflammation (Iba-1, GFAP) in SNpc; format: in vivo, C57BL/6 mice
Method: as §1
The perfusion was performed with ice-cold PBS and fixed by 4% paraformaldehyde after deep anesthesia. Whole brains were collected, and fixed in the 4% paraformaldehyde, and incubated in cryoprotection solution (30% sucrose/PBS, pH 7.4). Brains were frozen in an optimal cutting temperature (OCT) solution and serial coronal sections (30 µm sections) were cut with a microtome. Free-floating sections were blocked with 5% goat or horse serum/PBS plus 0.2% Triton X-100 and incubated with anti-TH antibody (Novus Biologicals) or anti-pS129-α-synuclein followed by incubation with biotin-conjugated anti-rabbit antibody or anti-mouse antibody (Vector Labs). After washing three times, ABC reagents (Vector Labs) were added and sections were developed using SigmaFast 3, 3′-Diaminobenzidine (DAB) Peroxidase Substrate (Sigma-Aldrich). Sections were counterstained with Nissl (0.09% thionin). TH-positive and Nissl-positive dopaminergic neurons from the SNpc region were counted through optical fractionators, the unbiased method for cell counting. This method was carried out by using a computer-assisted image analysis system consisting of an Axiophot photomicroscope (Carl Zeiss Vision) equipped with a computer-controlled motorized stage (Ludl Electronics), a Hitachi HV C20 camera and Stereo Investigator software (MicroBright-Field). The total number of TH-stained neurons and Nissl counts was analyzed as previously described ([27],[43]). Fiber density in the striatum was analyzed by optical density (OD) measurement. […] The number of pS129-α-synuclein positive and Nissl positive in the SNpc region were measured with ImageJ software and field counting. […] The number and immunoreactivities of microglia and astrocyte in the SNpc region were measured with ImageJ software.

c-Abl [5] = assay: α-synuclein PFF-induced c-Abl activation in primary cortical neurons (Western blot); format: cell-based, C57BL/6 mice; settings: 1 μM
Method: (§4) C57BL/6 mice were obtained from the Charles River (Wilmington, MA). Primary cortical neurons were prepared from E15.5 pups and cultured in Neurobasal media supplemented with B-27, 0.5 mM L-glutamine, penicillin and streptomycin (Invitrogen, Grand Island, NY) on 24-well tissue culture plates coated with poly-D-lysine. Radotinib HCl was added to neurons for 30 min and α-synuclein PFF (final concentration 1 μg/ml) was further incubated as described (10 or 14 days) followed by Immunocytochemistry and biochemical or toxicity assays. Radotinib HCl was added to neurons three times a week before the assays.
After washing two times with PBS, primary cortical neurons were harvested and then lysed with RIPA lysis buffer (Thermo Scientific) with phosphatase inhibitor cocktail (Sigma-Aldrich) and complete protease inhibitor mixture (Roche) for 30 min in ice. The lysate is then homogenized and centrifuged at 22 000 × g for 30 min.
(§5) Protein concentrations were determined using the BCA assay (Pierce, Rockford, IL, USA). 2X Laemmli buffer (Bio-Rad) was utilized to dilute the lysates. […] Protein bands were detected using chemiluminescence detection system onto X-ray film. […]

primary cortical neurons [6] = assay: α-synuclein PFF-induced LB/LN-like pathology in primary cortical neurons (pS129-α-synuclein immunostaining); format: cell-based, C57BL/6 mice; settings: 50 nM, 250 nM and 1 μM, dose-dependent; 10 days
Method: as §4, §2
Primary antibodies, anti-pS129-α-synuclein (ab168381; Abcam), anti-TH antibody (Novus Biologicals) and anti-MAP2 (MAB3418; Millipore) were incubated at 4°C overnight. […]

c-Abl [7] = assay: α-synuclein PFF mouse model: c-Abl activation and p38 MAPK phosphorylation in brain (Western blot); format: in vivo, C57BL/6 mice
Method: The mouse brain tissues were homogenized and prepared in lysis buffer (10 mM Tris–HCL, pH 7.4, 150 mM NaCl, 5 mM EDTA, 0.5% Nonidet P-40, 10 mM Na-β-glycerophosphate, phosphatase inhibitor cocktail (Sigma-Aldrich) and complete protease inhibitor mixture (Roche)), using a Diax 900 homogenizer (Sigma-Aldrich). After homogenization, samples were rotated at 4°C for 30 min for complete lysis, the homogenate was centrifuged at 22 000 × g for 30 min and the supernatants were collected.
as §5, §3

primary cortical neurons [8] = assay: Oxygen consumption rate (Seahorse XF24) in α-synuclein PFF-treated primary cortical neurons; format: cell-based, mouse; settings: 1 μM, 14 days
Method: OCR was determined using the Seahorse XF24 Extracellular Flux Analyzer and the XF Cell Mito Stress Test Kit according to the manufacturer’s instruction (Agilent Technologies, Santa Clara, CA) ([42]). Briefly, primary mouse cortical neurons were plated in a XF24 cell culture microplate coated with poly-D-lysine. Cells were washed once with XF Assay Media, pre-incubated in a non-CO2 incubator at 37°C for 30 min in XF Assay Media. For the assay, cells were treated sequentially with 1 μM Oligomycin, 2 μM carbonyl cyanide-p-trifluoromethoxyphenylhydrazone (FCCP), and 1 μM Rotenone plus 1 μM Antimycin A. Oligomycin inhibits ATP synthase (complex V) to measure ATP production and proton leak. FCCP uncouples oxygen consumption from ATP production enables to measure maximal respiration. Rotenone and antimycin A inhibit complexes I and III and shut down mitochondrial respiration. Basal respiration was calculated using the mean of the OCR measurements before oligomycin injection minus the mean of the OCR measurements after rotenone and antimycin A injection, and maximal respiration was defined as the difference between the mean of the OCR measurements after FCCP injection and the mean of the OCR measurements after rotenone and antimycin A injection.

primary cortical neurons [9] = assay: α-synuclein PFF-induced neuronal toxicity (TUNEL, Alamar Blue); format: cell-based, C57BL/6 mice; settings: α-synuclein PFF 14 days; 50, 250, 1000 nM
Method: as §4
Cell viability was tested via two methods; In Situ Cell Death Detection Kit (Roche) for TUNEL assay and Alamar Blue assay (Thermo Fisher). […] Cell death was assessed through the TUNEL assay, according to the manufacturer’s protocol. For Alamar Blue assay, after adding Alamar Blue solution for 4 h, cell viability was determined by fluorescence at excitation wavelength 570 nm and emission wavelength 585 nm.

[10] = low (3), mid (10) and high (30 mg/kg) doses oral, 6 months after PFF
[11] = mid (10 mg/kg) and high (30 mg/kg) doses oral

## Cc1cn(-c2cc(NC(=O)c3ccc(C)c(Nc4nccc(-c5cccnc5)n4)c3)cc(C(F)(F)F)c2)cn1 [Nilotinib]
[1]; high dose (30 mg/kg) oral
  Behavioral deficits in the α-synuclein PFF mouse model: protected against the behavioral deficits
[2]; high dose (30 mg/kg) oral
  SNpc TH- and Nissl-positive dopaminergic neurons (stereologic counting): dramatic preservation
BCR-Abl
  IC50: […]
[3]; high dose (30 mg/kg) oral
  Reduction of TX-insoluble α-synuclein aggregate species, pS129- and pY39-α-synuclein compared to Radotinib HCl: less effect
[3]; high dose (30 mg/kg)
  Accumulation of pS129-α-synuclein in SNpc TH-positive neurons: significantly decreased
[4]; high dose (30 mg/kg) oral
  Astrocyte activation (GFAP) in SNpc: significantly decreased
  Iba-1 immunoreactivity and microglial density in SNpc: significantly reduced

## Cc1cn(-c2cc(NC(=O)c3ccc(C)c(Nc4nccc(-c5cnccn5)n4)c3)cc(C(F)(F)F)c2)cn1 [Radotinib HCl]
[1]; [10]
  Grip strength (neuromuscular strength reduced by α-synuclein PFF): restored
  Pole test latency induced by α-synuclein PFF: significantly restored
[1]; mid (10 mg/kg) and high (30 mg/kg) doses oral, amphetamine 5 mg/kg I.P.
  Amphetamine-induced full body ipsilateral rotations: reduced
c-Abl [5]; α-synuclein PFF 1 μg/ml, primary cortical neurons
  c-Abl activation induced by α-synuclein PFF (pY245-c-Abl): significantly decreased
c-Abl [5]; α-synuclein PFF-treated primary cortical neurons
  Level of pY39-α-synuclein: significantly decreased
Primary cortical neurons [6]
  LB/LN-like pathology induced by α-synuclein PFF (pS129-α-synuclein immunostaining): significantly decreased
[2]; low (3), mid (10) and high (30 mg/kg) doses oral
  α-synuclein PFF-induced reduction in striatal TH-fiber density: significantly rescued
[2]; [11]
  SNpc TH- and Nissl-positive dopaminergic neurons (stereologic counting): dramatic preservation
BCR-Abl
  IC50: 34 nM
c-Abl [7]; Supplementary Fig. S1
  Increase in phosphorylation of c-Abl (Y245) and of p38 MAPK in α-synuclein PFF-injected mice: reversed
c-Abl [7]; α-synuclein PFF-injected mice
  c-Abl activation, TX-insoluble α-synuclein aggregates, phosphorylation of Y39-α-synuclein and p38 MAPK, compared to Nilotinib-treated mice: substantially decreased
Primary cortical neurons [8]
  Basal respiration rate (BRR): markedly restored
  Maximal respiration rate (MRR): markedly restored
Primary cortical neurons [9]
  α-synuclein PFF neuronal toxicity, Alamar blue assay: significantly attenuated
  α-synuclein PFF neuronal toxicity, TUNEL staining: significantly attenuated
[3]; 3, 10, 30 mg/kg oral, dose-dependent
  TX-insoluble α-synuclein aggregates species, pS129-α-synuclein and pY39-α-synuclein levels in ventral midbrain: significantly reduced
[3]; mid (10 mg/kg) and high (30 mg/kg) doses
  Accumulation of pS129-α-synuclein in SNpc TH-positive neurons: significantly decreased
[4]; [11]
  Astrocyte activation (GFAP) in SNpc: significantly decreased
  Iba-1 immunoreactivity and microglial density in SNpc: significantly reduced

Reference: PMC6005030, “The c-Abl inhibitor, Radotinib HCl, is neuroprotective in a preclinical Parkinson’s disease mouse model” (Human Molecular Genetics, 2018)
